Structures can show the parent of a compound that is named as a salt.
Columns and labels:
human κ opioid receptor = human κ opioid receptor (Homo sapiens, UniProt P41145); test: κ opioid receptor agonist activity test in GTP binding activity measurement system ([35S]GTPγS binding); type: biochemical; conditions: test compound concentration 10^−9 M, binding of 10^−6 M (−)-U50488 = 100%, human κ opioid receptor membrane preparation, average of duplicate
Experimental: 1. κ Opioid Receptor Agonist Activity Tests in GTP Binding Activity Measurement System
Jinmin Zhu et al. reported a method of evaluating agonist activities of drugs on a κ opioid receptor wherein guanosine 5′-triphosphate (GTP) radiolabelled with a human κ opioid receptor is used in J. Pharmaco. Exp. Ter., 282, 676–684 (1997). κ opioid receptor agonist activities (actions) of test compounds were evaluated according to the method described in the above-mentioned literature.
N-2-Hydroxyethylpiperazine-N′-2-ethanesulfonic acid (HEPES, 4.77 g), magnesium chloride hexahydrate (2.03 g), sodium chloride (5.84 g), disodium […] (EDTA•2Na, 0.37 g), DL-dithiothreitol (DTT, 0.15 g) and bovine serum albumin (BSA, 1.0 g) were dissolved in ultrapure water, pH was adjusted to 7.4 with sodium hydroxide, and further ultrapure water was added to the mixture so that a total amount was one liter to prepare a incubation buffer.
Nine volume of the incubation buffer was added to one volume of dimethyl sulfoxide (DMSO) to prepare a 10% DMSO-incubation buffer.
Tris(hydroxymethyl)aminomethane hydrochloride (TRIZA-HCl, 66.1 g) and Tris(hydroxymethyl)aminomethane (TRIZA-Base, 9.7 g) were dissolved in ultrapure water so that a total amount was 10 liters to prepare a 50 mM Tris-hydrochloric acid buffer (pH 7.4).
A human κ opioid receptor membrane preparation (100 unit/ml) was diluted 60 times with the incubation buffer under ice-cold to prepare a human κ opioid receptor membrane preparation solution. The membrane preparation solution was preserved under ice-cold.
A test compound was dissolved in 100% DMSO to prepare a 10^−3 M test compound solution, and then the incubation buffer was added to the 10^−3 M test compound solution to prepare a 10^−4 M test compound solution. Next, the 10% dimethyl sulfoxide-incubation buffer was added to the 10^−4 M test compound solution to prepare a 10^−5 M, 10^−6 M, 10^−7 M, 10^−8 M or 10^−9 M test compound solution.
A drug (−)-U50488 (J. Pharmacol. Exp. Ther., 224, 7–12 (1983)), which is known as a κ opioid receptor agonist, was used as a positive control drug in the tests.
(−)-U-50488 was dissolved in 100% DMSO to prepare a 10^−3 M positive control drug solution, and then the incubation buffer was added to the 10^−3 M positive control drug solution to prepare a 10^−4 M positive control drug solution. Next, the 10% DMSO-incubation buffer was added to the 10^−4 M positive control drug solution to prepare a 10^−6 M positive control drug solution.
GDP was dissolved in ultrapure water to prepare a 10^−3 M GDP solution, and the incubation buffer was added to the 10^−3 M GDP solution to prepare a 10^−5 M GDP solution.
10^−3 M [^35S]GTPγS was diluted with the incubation buffer to prepare 10^−9 M radiolabelled reagent.
• 1. The incubation buffer (50 μl), the 10^−5 M GDP solution (50 μl), the human κ opioid receptor membrane preparation solution (300 μl), the test compound solution and the 10^−9 M radiolabelled reagent (50 μl) were put into a glass tube, and then the mixture was incubated at 30° C. for 60 minutes. • 2. The 50 mM Tris-hydrochloric acid buffer (pH 7.4) was added to the mixture to stop the reaction, the reaction mixture was suction-filtered with a GF/B filter, and then the residue on the GF/B filter was washed with the 50 mM Tris-hydrochloric acid buffer (3 ml) three times. • 3. The GF/B filter was air-dried, and then the residue on the GF/B filter was taken out with an antomatic dispenser and transfered into a vial. • 4. Scintisol EX-H (5 ml) was introduced into the vial to prepare a sample solution, and then radioactivity in the sample solution was measured with a liquid scintillation counter for one minute. The radioactivity was expressed in “cpm” (counts per minute). Calculation Formula of κ Opioid Receptor Agonist Activity
Each agonist activity of the test compound on the κ opioid receptor was expressed in [^35S]GTPγS binding % when [^35S]GTPγS binding of 10^−6 M (−)-U50488 was 100%. […]

[1] = tested on: mouse acetic acid writhing; test: Antinociceptive action test by mouse acetic acid writhing method; type: in vivo; conditions: 30 mg/kg oral, 20 min before 0.7% acetic acid i.p., writhing counted 10 to 20 minutes after acetic acid, vs vehicle group, average of seven samples
Experimental: 2. Antinociceptive Action Tests by Mouse Acetic Acid Writhing Method
Accordingly, antinociceptive action tests of test compounds were carried out using the mouse acetic acid writhing method, and analgesic effects of the test compounds were evaluated.
Twenty minutes after oral administration of the test compound (30 mg/kg), the 0.7% acetic acid solution was administered intraperitoneally in a rate of 0.1 ml per 10 g of mouse weight.
Inhibition rates were calculated according to the following equation.
The antinociceptive action of the test compound was expressed in an inhibition rate to writhing numbers of a vehicle group.

Chain of human κ opioid receptor (P41145 whole entry): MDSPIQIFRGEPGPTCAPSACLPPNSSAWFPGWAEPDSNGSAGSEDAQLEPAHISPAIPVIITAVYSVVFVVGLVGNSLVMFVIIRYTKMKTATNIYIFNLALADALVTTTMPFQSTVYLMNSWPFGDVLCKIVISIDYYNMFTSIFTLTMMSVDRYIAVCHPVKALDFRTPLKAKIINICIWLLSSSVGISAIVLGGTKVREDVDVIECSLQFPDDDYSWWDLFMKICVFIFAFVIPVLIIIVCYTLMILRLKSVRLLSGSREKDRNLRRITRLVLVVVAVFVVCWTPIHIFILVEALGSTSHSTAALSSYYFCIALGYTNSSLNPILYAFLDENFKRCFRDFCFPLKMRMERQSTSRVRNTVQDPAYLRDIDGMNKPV

SMILES	[^35S]GTP γ S binding % (human κ opioid receptor) [%]	also measured
COc1ccc(OCCCN2CCC[C@H]2CO)c(C2Sc3cc(Cl)ccc3N2C(C)=O)c1 (stereo partly drawn) [Compound No. 3-12, 3-Acetyl-6-chloro-2-[2-(3-((2S)-2-hydroxymethylazolan-1-yl)propoxy)-5-methoxyphenyl]benzothiazoline Hydrochloride]	75.6	–
COc1ccc(OCCCN(C(C)C)C(C)C)c(C2Sc3cc(Cl)ccc3N2C(C)=O)c1 (single isomer, unassigned; (+)) [Compound No. 9-11, (+)-3-Acetyl-6-chloro-2-[2-(3-(N,N-diisopropylamino)propoxy)-5-methoxyphenyl]benzothiazoline Hydrochloride]	55.0	–
COc1ccc(OCCCN(CCO)C(C)C)c(C2Sc3ccc(C(F)(F)F)cc3N2C(C)=O)c1 (stereo not drawn) [Compound No. 4-2, 3-Acetyl-2-[2-(3-(N-(2-hydroxyethyl)-N-isopropylamino)propoxy)-5-methoxyphenyl]-5-trifluoromethylbenzothiazoline Hydrochloride]	65.1	–
COCCOCOCCN(CCCOc1ccc(OC)cc1C1Sc2cc(Cl)ccc2N1C(C)=O)C(C)C (stereo not drawn) [Compound No. 20-2, 3-Acetyl-6-chloro-2-[2-(3-(N-isopropyl-N-(2-(2-methoxyethoxymethoxy)-ethyl)amino)propoxy)-5-methoxyphenyl]benzothiazoline]	50.5	Inhibition rate (%) [1]: 81.7%
COc1ccc(OC(C)CCN(CCO)C(C)C)c(C2Sc3cc(Cl)ccc3N2C(C)=O)c1 (stereo not drawn) [Compound No. 7-2, 3-Acetyl-6-chloro-2-[2-(3-(N-(2-hydroxyethyl)-N-isopropylamino)-1-methylpropoxy)-5-methoxyphenyl]benzothiazoline Hydrochloride]	62.9	Inhibition rate (%) [1]: 70.0%
COc1ccc(OCCCN(CCO)C(C)C)c(C2Sc3cc(Cl)ccc3N2C(C)=O)c1 (single isomer, unassigned; (-)) [Compound No. 10-2, (−)-3-Acetyl-6-chloro-2-[2-(3-(N-(2-hydroxyethyl)-N-isopropylamino)-propoxy)-5-methoxyphenyl]benzothiazoline Hydrochloride]	–	[^35S]GTP γ S binding % (human κ opioid receptor; Hydrochloride): 65.8%
COc1ccc(OCCCN(C)C(C)C)c(C2Sc3cc(Cl)ccc3N2C(C)=O)c1 (single isomer, unassigned; (+)) [Compound No. 9-12, (+)-3-Acetyl-6-chloro-2-[2-(3-(N-isopropyl-N-methylamino)propoxy)-5-methoxyphenyl]benzothiazoline Hydrochloride]	107.9	Inhibition rate (%) [1]: 57.8%
COc1ccc(OCCCN(Cc2cccs2)C(C)C)c(C2Sc3cc(Cl)ccc3N2C(C)=O)c1 (single isomer, unassigned; (+)) [Compound No. 9-4, (+)-3-Acetyl-6-chloro-2-[2-(3-(N-isopropyl-N-(thiophen-2-ylmethyl)-amino)propoxy)-5-methoxyphenyl]benzothiazoline Hydrochloride]	72.1	–
COc1ccc(OCCCN(Cc2ccco2)C(C)C)c(C2Sc3cc(Cl)ccc3N2C(C)=O)c1 (stereo not drawn) [Compound No. 3-38, 3-Acetyl-6-chloro-2-[2-(3-(N-(furan-2-ylmethyl)-N-isopropylamino)-propoxy)-5-methoxyphenyl]benzothiazoline Hydrochloride]	–	[^35S]GTP γ S binding % (human κ opioid receptor; Hydrochloride): 58.4%
COc1ccc(OCCCN(C)CCO)c(C2Sc3cc(Cl)ccc3N2C(C)=O)c1 (single isomer, unassigned; (+)) [Compound No. 9-16, (+)-3-Acetyl-6-chloro-2-[2-(3-(N-(2-hydroxyethyl)-N-methylamino)-propoxy)-5-methoxyphenyl]benzothiazoline Hydrochloride]	57.2	–
COCCN(CCCOc1ccc(OC)cc1C1Sc2ccccc2N1C(C)=O)C(C)C (stereo not drawn) [Compound No. 8-1, 3-Acetyl-2-[2-(3-(N-isopropyl-N-(2-methoxyethyl)amino)propoxy)-5-methoxyphenyl]benzothiazoline Hydrochloride]	–	activation at 0.001 µM (human κ opioid receptor; read-out: [^35S]GTP γ S binding %): 103%
COc1ccc(OCCCN(Cc2ccco2)C(C)C)c(C2Sc3cc(Cl)ccc3N2C(C)=O)c1 (single isomer, unassigned; (+)) [Compound No. 9-5, (+)-3-Acetyl-6-chloro-2-[2-(3-(N-(furan-2-ylmethyl)-N-isopropylamino)propoxy)-5-methoxyphenyl]benzothiazoline Hydrochloride]	–	[^35S]GTP γ S binding % (human κ opioid receptor; Hydrochloride): 132.5%
CCN(CCCOc1ccc(OC)cc1C1Sc2cc(Cl)ccc2N1C(C)=O)C(C)C (single isomer, unassigned; (+)) [Compound No. 9-10, (+)-3-Acetyl-6-chloro-2-[2-(3-(N-ethyl-N-isopropylamino)propoxy)-5-methoxyphenyl]benzothiazoline Hydrochloride]	116.8	–
COc1ccc(OCCCN(CCO)CC(C)C)c(C2Sc3cc(Cl)ccc3N2C(C)=O)c1 (stereo not drawn) [Compound No. 3-11, 3-Acetyl-6-chloro-2-[2-(3-(N-(2-hydroxyethyl)-N-(2-methylpropyl)-amino)propoxy)-5-methoxyphenyl]benzothiazoline Hydrochloride]	53.7	–
COCCN(CCCOc1ccc(OC)cc1C1Sc2cc(Cl)ccc2N1C(C)=O)C(C)C.Cl (single isomer, unassigned; (-)) [Compound No. 10-1, (−)-3-Acetyl-6-chloro-2-[2-(3-(N-isopropyl-N-(2-methoxyethyl)amino)-propoxy)-5-methoxyphenyl]benzothiazoline Hydrochloride]	–	[^35S]GTP γ S binding % (human κ opioid receptor; Hydrochloride): 50.5%
COc1ccc(OCCCN2CC[C@H](O)C2)c(C2Sc3cc(Cl)ccc3N2C(C)=O)c1 (stereo partly drawn) [Compound No. 3-14, 3-Acetyl-6-chloro-2-[2-(3-((3S)-hydroxyazolan-1-yl)propoxy)-5-methoxyphenyl]benzothiazoline Hydrochloride]	59.8	–
COc1ccc(OCCCN(CCO)C(C)C)c(C2Sc3ccccc3N2C(C)=O)c1 (single isomer, unassigned; (+)) [Compound No. 11-3, (+)-3-Acetyl-2-[2-(3-(N-(2-hydroxyethyl)-N-isopropylamino)-propoxy)-5-methoxyphenyl]benzothiazoline Hydrochloride]	85.1	–
CCOCCN(CCCOc1ccc(OC)cc1C1Sc2cc(Cl)ccc2N1C(C)=O)C(C)C (single isomer, unassigned; (-)) [Compound No. 10-3, (−)-3-Acetyl-6-chloro-2-[2-(3-(N-(2-ethoxyethyl)-N-isopropylamino)-propoxy)-5-methoxyphenyl]benzothiazoline Hydrochloride]	–	[^35S]GTP γ S binding % (human κ opioid receptor; Hydrochloride): 55.7%
